Results as given in US20060110456A1, “Method for biocidal and/or biostatic treatment and compositions therefor” (NATIONAL UNIVERSITY OF SINGAPORE, priority 2004, published 2006).

System: marine bacteria (26 strains)
Assay: Disk inhibition assay
Type: cell-based, marine bacteria isolated from Singapore fouling communities
Conditions: for zone of inhibition at 10 µg/disc: 10 μg per disc; for zone of inhibition at 25 µg/disc: 25 μg per disc; for zone of inhibition at 5 µg/disc: 5 μg per disc; for zone of inhibition at 15 µg/disc: 15 μg per disc
Description: Preparation of Drugs onto Disks for Assay
The non-antibiotic pharmaceuticals of Table 1 were prepared in the following way. A tablet with a known amount of active ingredient (as stated in the product information) was ground in a mortar and pestle and suspended in sterile deionized water to a concentration of 2 mg ml^−1. These samples were sonicated for at least 1 min. […] The two halves of the capsule were separated and the powder released straight into a bottle and suitable amount of water added to make a concentration of 2 mg ml^−1.
As a comparison to the pharmaceuticals, to determine the susceptibility of the bacterial isolates to conventional antibiotics, commercially available antibiotic discs were used. Antibiotic discs (Oxoid® CT series) containing Ampicillin [Amp] (2 and 10 μg), Erythromycin [Ery] (5 and 15 μg), Streptomycin [Str] (10 and 25 μg) and Tetracycline [Tet] (5 and 30 μg) were placed on lawns of the bacterial strains inoculated as described below.
Sterile swabs dipped into the cultures were used to inoculate Marine Agar plates with a bacterial lawn by smearing the culture over the surface. After inoculating the plates, discs with antibiotics, pharmaceuticals or control blanks were placed on each plate. Each concentration of antibiotic or pharmaceutical was tested with three replicates on three separate occasions. After the disks were placed on the agar surface, plates were incubated overnight in the dark at 30° C. After incubation, plates were examined for zones of inhibition or clearing around control and treated disks. The diameter of any zone of clearing or inhibition was measured using Vernier calipers.
The assay was repeated three times with three replicates for each concentration used, each time.

`[H]/N=C(/N)N[C@H]1[C@H](O)[C@@H](O)[C@H](O[C@@H]2O[C@@H](C)[C@](O)(C=O)[C@H]2O[C@@H]2O[C@@H](CO)[C@H](O)[C@@H](O)[C@@H]2NC)[C@@H](N/C(N)=N\[H])[C@@H]1O` [Str, streptomycin] showed a zone of inhibition at 10 µg/disc (strain 1 (Rhodovulum)) of 10 to 19 mm, a zone of inhibition at 25 µg/disc (strain 1 (Rhodovulum)) of 20 to 29 mm and a zone of inhibition at 10 µg/disc (strain 2 (Erythrobacter)) of under 6 mm. For the same compound, the zone of inhibition at 25 µg/disc (strain 2 (Erythrobacter)) was under 6 mm, the zone of inhibition at 10 µg/disc (strain 3 (Erythrobacter)) was under 6 mm and the zone of inhibition at 25 µg/disc (strain 3 (Erythrobacter)) was under 6 mm. The zone of inhibition at 10 µg/disc (strain 4 (Bacillus)) was 10 to 19 mm, the zone of inhibition at 25 µg/disc (strain 4 (Bacillus)) was 10 to 19 mm and the zone of inhibition at 10 µg/disc (strain 6 (Vibrio)) was under 6 mm. It also gave a zone of inhibition at 25 µg/disc (strain 6 (Vibrio)) of 10 to 19 mm, a zone of inhibition at 10 µg/disc (strain 7 (Vibrio)) of 10 to 19 mm and a zone of inhibition at 25 µg/disc (strain 7 (Vibrio)) of 10 to 19 mm. It also gave a zone of inhibition at 10 µg/disc (strain 8 (Bacillus)) of 10 to 19 mm, a zone of inhibition at 25 µg/disc (strain 8 (Bacillus)) of 10 to 19 mm and a zone of inhibition at 10 µg/disc (strain 9 (Bacillus)) of 10 to 19 mm. It also gave a zone of inhibition at 25 µg/disc (strain 9 (Bacillus)) of 10 to 19 mm, a zone of inhibition at 10 µg/disc (strain 10 (Halobacillus)) of 10 to 19 mm and a zone of inhibition at 25 µg/disc (strain 10 (Halobacillus)) of 10 to 19 mm. The zone of inhibition at 10 µg/disc (strain 11 (Pseudomonas)) was 10 to 19 mm, the zone of inhibition at 25 µg/disc (strain 11 (Pseudomonas)) was 20 to 29 mm and the zone of inhibition at 10 µg/disc (strain 12 (Gordonia)) was under 6 mm. The zone of inhibition at 25 µg/disc (strain 12 (Gordonia)) was 10 to 19 mm, the zone of inhibition at 10 µg/disc (strain 13 (Bacillus)) was 10 to 19 mm and the zone of inhibition at 25 µg/disc (strain 13 (Bacillus)) was 10 to 19 mm. The zone of inhibition at 10 µg/disc (strain 14 (Vibrio)) was under 6 mm, the zone of inhibition at 25 µg/disc (strain 14 (Vibrio)) was 6 to 9 mm and the zone of inhibition at 10 µg/disc (strain 16 (Pseudoalteromonas)) was 6 to 9 mm. It also gave a zone of inhibition at 25 µg/disc (strain 16 (Pseudoalteromonas)) of 10 to 19 mm, a zone of inhibition at 10 µg/disc (strain 17 (Gordonia)) of 10 to 19 mm and a zone of inhibition at 25 µg/disc (strain 17 (Gordonia)) of 10 to 19 mm. It also gave a zone of inhibition at 10 µg/disc (strain 18 (Microbacterium)) of 10 to 19 mm, a zone of inhibition at 25 µg/disc (strain 18 (Microbacterium)) of 10 to 19 mm and a zone of inhibition at 10 µg/disc (strain 19 (Erythrobacter)) of under 6 mm. For the same compound, the zone of inhibition at 25 µg/disc (strain 19 (Erythrobacter)) was under 6 mm, the zone of inhibition at 10 µg/disc (strain 20) was under 6 mm and the zone of inhibition at 25 µg/disc (strain 20) was under 6 mm. The zone of inhibition at 10 µg/disc (strain 21) was 10 to 19 mm, the zone of inhibition at 25 µg/disc (strain 21) was 10 to 19 mm and the zone of inhibition at 10 µg/disc (strain 22) was 6 to 9 mm. The zone of inhibition at 25 µg/disc (strain 22) was 20 to 29 mm, the zone of inhibition at 10 µg/disc (strain 24) was under 6 mm and the zone of inhibition at 25 µg/disc (strain 24) was 20 to 29 mm. The zone of inhibition at 10 µg/disc (strain 26) was under 6 mm, the zone of inhibition at 25 µg/disc (strain 26) was 20 to 29 mm and the zone of inhibition at 10 µg/disc (strain 27) was under 6 mm. The zone of inhibition at 25 µg/disc (strain 27) was under 6 mm, the zone of inhibition at 10 µg/disc (strain 28) was 10 to 19 mm and the zone of inhibition at 25 µg/disc (strain 28) was 10 to 19 mm. For the same compound, the zone of inhibition at 10 µg/disc (strain 29) was 10 to 19 mm, the zone of inhibition at 25 µg/disc (strain 29) was 10 to 19 mm and the zone of inhibition at 10 µg/disc (strain 30) was 10 to 19 mm. For the same compound, the zone of inhibition at 25 µg/disc (strain 30) was 10 to 19 mm.

With `CC[C@H]1OC(=O)[C@H](C)[C@@H](O[C@H]2C[C@@](C)(OC)[C@@H](O)[C@H](C)O2)[C@H](C)[C@@H](O[C@@H]2O[C@H](C)C[C@H](N(C)C)[C@H]2O)[C@](C)(O)C[C@@H](C)C(=O)[C@H](C)[C@@H](O)[C@]1(C)O` [Ery, erythromycin] the “Effectiveness of antibiotics against strains of marine bacteria” value (commercial antibiotic discs, in words) was “effective against most of the strains of marine bacteria”, the zone of inhibition at 5 µg/disc (strain 1 (Rhodovulum)) was under 6 mm and the zone of inhibition at 15 µg/disc (strain 1 (Rhodovulum)) was under 6 mm. For the same compound, the zone of inhibition at 5 µg/disc (strain 2 (Erythrobacter)) was under 6 mm, the zone of inhibition at 15 µg/disc (strain 2 (Erythrobacter)) was 20 to 29 mm and the zone of inhibition at 5 µg/disc (strain 3 (Erythrobacter)) was 10 to 19 mm. For the same compound, the zone of inhibition at 15 µg/disc (strain 3 (Erythrobacter)) was 20 to 29 mm, the zone of inhibition at 5 µg/disc (strain 4 (Bacillus)) was over 40 mm and the zone of inhibition at 15 µg/disc (strain 4 (Bacillus)) was 30 to 39 mm. For the same compound, the zone of inhibition at 5 µg/disc (strain 6 (Vibrio)) was under 6 mm, the zone of inhibition at 15 µg/disc (strain 6 (Vibrio)) was 10 to 19 mm and the zone of inhibition at 5 µg/disc (strain 7 (Vibrio)) was 10 to 19 mm. The zone of inhibition at 15 µg/disc (strain 7 (Vibrio)) was 10 to 19 mm, the zone of inhibition at 5 µg/disc (strain 8 (Bacillus)) was 20 to 29 mm and the zone of inhibition at 15 µg/disc (strain 8 (Bacillus)) was 30 to 39 mm. For the same compound, the zone of inhibition at 5 µg/disc (strain 9 (Bacillus)) was 30 to 39 mm, the zone of inhibition at 15 µg/disc (strain 9 (Bacillus)) was 30 to 39 mm and the zone of inhibition at 5 µg/disc (strain 10 (Halobacillus)) was 30 to 39 mm. For the same compound, the zone of inhibition at 15 µg/disc (strain 10 (Halobacillus)) was over 40 mm, the zone of inhibition at 5 µg/disc (strain 11 (Pseudomonas)) was 20 to 29 mm and the zone of inhibition at 15 µg/disc (strain 11 (Pseudomonas)) was 20 to 29 mm. For the same compound, the zone of inhibition at 5 µg/disc (strain 12 (Gordonia)) was under 6 mm, the zone of inhibition at 15 µg/disc (strain 12 (Gordonia)) was 10 to 19 mm and the zone of inhibition at 5 µg/disc (strain 13 (Bacillus)) was 20 to 29 mm. For the same compound, the zone of inhibition at 15 µg/disc (strain 13 (Bacillus)) was 20 to 29 mm, the zone of inhibition at 5 µg/disc (strain 14 (Vibrio)) was under 6 mm and the zone of inhibition at 15 µg/disc (strain 14 (Vibrio)) was 10 to 19 mm. It also gave a zone of inhibition at 5 µg/disc (strain 16 (Pseudoalteromonas)) of 10 to 19 mm, a zone of inhibition at 15 µg/disc (strain 16 (Pseudoalteromonas)) of 6 to 9 mm and a zone of inhibition at 5 µg/disc (strain 17 (Gordonia)) of over 40 mm. The zone of inhibition at 15 µg/disc (strain 17 (Gordonia)) was over 40 mm, the zone of inhibition at 5 µg/disc (strain 18 (Microbacterium)) was 6 to 9 mm and the zone of inhibition at 15 µg/disc (strain 18 (Microbacterium)) was 10 to 19 mm. For the same compound, the zone of inhibition at 5 µg/disc (strain 19 (Erythrobacter)) was 20 to 29 mm, the zone of inhibition at 15 µg/disc (strain 19 (Erythrobacter)) was 20 to 29 mm and the zone of inhibition at 5 µg/disc (strain 20) was 10 to 19 mm. The zone of inhibition at 15 µg/disc (strain 20) was 20 to 29 mm, the zone of inhibition at 5 µg/disc (strain 21) was 20 to 29 mm and the zone of inhibition at 15 µg/disc (strain 21) was 20 to 29 mm. For the same compound, the zone of inhibition at 5 µg/disc (strain 22) was 10 to 19 mm, the zone of inhibition at 15 µg/disc (strain 22) was 30 to 39 mm and the zone of inhibition at 5 µg/disc (strain 24) was 20 to 29 mm. For the same compound, the zone of inhibition at 15 µg/disc (strain 24) was 20 to 29 mm, the zone of inhibition at 5 µg/disc (strain 26) was 20 to 29 mm and the zone of inhibition at 15 µg/disc (strain 26) was 20 to 29 mm. For the same compound, the zone of inhibition at 5 µg/disc (strain 27) was 20 to 29 mm, the zone of inhibition at 15 µg/disc (strain 27) was 20 to 29 mm and the zone of inhibition at 5 µg/disc (strain 28) was 20 to 29 mm. For the same compound, the zone of inhibition at 15 µg/disc (strain 28) was 20 to 29 mm, the zone of inhibition at 5 µg/disc (strain 29) was 30 to 39 mm and the zone of inhibition at 15 µg/disc (strain 29) was 20 to 29 mm. For the same compound, the zone of inhibition at 5 µg/disc (strain 30) was 20 to 29 mm and the zone of inhibition at 15 µg/disc (strain 30) was 20 to 29 mm.
